The values below come from publication PMC6497424 (ACS Catalysis, 2019).

In assay [1] the target is T1, PtHmfF (P. thermopropionicum HmfF) (Pelotomaculum thermopropionicum, UniProt A5D4Z9).
T1 construct: gene UbiD; codon-optimised, full length; pET30a C-terminal His-tag from E. coli BL21(DE3), coexpressed with E. coli UbiX; untagged (pET21b) for crystals; hexamer (D3); The eightfold dimer variant is in pET28a (His-tag)
As to the kind of experiment: X-ray crystal structure, […] Å, FMN soak. It is filed as binding. As to conditions: K+ and Mn2+ present; stable analogue in prFMN site; untagged enzyme.

Assay [2] addresses T2, PtHmfF (P. thermopropionicum HmfF) (Pelotomaculum thermopropionicum, UniProt A5D4Z9, A315N/N348R/F351D/T355N/A388P/F393T/V395F/M399R).
T2 construct: gene UbiD; codon-optimised, full length; pET30a C-terminal His-tag from E. coli BL21(DE3), coexpressed with E. coli UbiX; untagged (pET21b) for crystals; hexamer (D3); The eightfold dimer variant is in pET28a (His-tag)
The assay is described as follows: X-ray crystal structure, […] Å. The settings on record: dimer variant; cofactor copurified from UbiX coexpression. It is filed as binding.

Assay [3] deals with T1, PtHmfF (P. thermopropionicum HmfF). The assay is described as follows: in vitro reconstitution of apo-enzyme; UV-vis spectra and activity. It is filed as biochemical. The settings on record: reduced prFMN added anaerobically, then oxidative maturation in air; FDCA 900 μM, 25 °C.
Assay [4] has as its target Pelotomaculum thermopropionicum 2,5-furandicarboxylic acid decarboxylase (HmfF), wild type, untagged (Pelotomaculum thermopropionicum). As to the kind of experiment: crystal structure; untagged PtHmfF, space group P21, crystals soaked with FMN in the presence of K+ and Mn2+, data to 2.7 Å, six monomers in the asymmetric unit; solved by Se-Met SAD.
Assay [5] addresses Pelotomaculum thermopropionicum HmfF dimer variant (A315N, N348R, F351D, T355N, A388P, F393T, V395F, M399R) (Pelotomaculum thermopropionicum). The assay is described as follows: SEC-MALS; 25 °C; 500 μL of 1.5 mg/mL protein on Superdex 200 10/300GL; 200 mM KCl, 1 mM MnCl2, 50 mM Tris pH 7.5; 0.75 mL/min. (Size exclusion chromatography separates by hydrodynamic size, large species first.)

The target is the same in assay [6]. As to the kind of experiment: crystal structure; PtHmfF dimer variant with prFMN, crystals grown at 4 °C, 2.3 Å, molecular replacement with the WT monomer; two monomers in the asymmetric unit.

As to `Cc1cc2nc3c(=O)[nH]c(=O)nc-3n(C[C@H](O)[C@H](O)[C@H](O)COP(=O)(O)O)c2cc1C` [FMN], the “X-ray crystal structure, 2.7 Å, FMN soak” value in assay [1] is “revealing clear electron density for both the FMN and the associated metal ions”. Take `Cc1cc2c3c(c1C)C(C)(C)CC=[N+]3c1c([nH]c(=O)[nH]c1=O)N2C[C@H](O)[C@H](O)[C@H](O)COP(=O)(O)O` [prFMN]: the “X-ray crystal structure, 2.3 Å” value in assay [2] is “the dimer variant crystals contain prFMN in the active site”. Also, the “in vitro reconstitution of apo-enzyme; UV-vis spectra and activity” value in assay [3] was “HmfF requires oxidative maturation of prFMN for activity”. On to “Pelotomaculum thermopropionicum 2,5-furandicarboxylic acid decarboxylase (HmfF), wild type, untagged (enzyme)”, for which the stoichiometry N in assay [4] came out at 6. On to “Pelotomaculum thermopropionicum HmfF dimer variant (A315N, N348R, F351D, T355N, A388P, F393T, V395F, M399R) (enzyme)”, for which the stoichiometry N in assay [5] and in assay [6] was 2 in each case.

As a reminder, the stoichiometry N is a count of units in the complex or per binding partner.
